# Biological target: T1, BACE2 (Homo sapiens, UniProt Q9Y5Z0)
# T1 construct: BACE2 enzyme ectodomain (derived from plasmid “pET17b-T7-hu proBACE2”) was prepared as described in Ostermann et al; T7 tag (N); made in house
# T1 sequence (Q9Y5Z0 21-473 limits assumed): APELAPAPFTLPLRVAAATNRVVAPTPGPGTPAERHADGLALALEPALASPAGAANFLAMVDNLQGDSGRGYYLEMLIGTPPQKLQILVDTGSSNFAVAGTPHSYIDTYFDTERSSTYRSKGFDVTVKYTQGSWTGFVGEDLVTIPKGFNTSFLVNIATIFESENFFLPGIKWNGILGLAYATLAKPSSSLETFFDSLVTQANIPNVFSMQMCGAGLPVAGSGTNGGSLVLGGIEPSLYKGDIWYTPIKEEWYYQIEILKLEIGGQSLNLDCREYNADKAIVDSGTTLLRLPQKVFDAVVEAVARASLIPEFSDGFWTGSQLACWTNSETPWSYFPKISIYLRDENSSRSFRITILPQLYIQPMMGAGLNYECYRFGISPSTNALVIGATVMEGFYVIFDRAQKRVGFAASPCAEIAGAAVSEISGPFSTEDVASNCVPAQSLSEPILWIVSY
# Assay: Fluorescent-peptide cleavage assay for BACE2 inhibition
# Type: biochemical
# Conditions: BACE2 enzyme ectodomain, fluorescent peptide WS EVNLD AEFRC-MR121, assay buffer pH 4.5, room temperature
# Method in brief: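 Pro-enzyme BACE2 was activated at 80 nM for 1 h at room temperature in 100 mM Na-acetate, 20 mM EDTA, 0.05% BSA, pH 4.5, then preincubated 10 min with compound. IC50 from sigmoidal dose-response fit.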
row,SMILES,IC50 [nM]
1,"CN1C(=O)C[C@@](C)(c2cccc(NC(=O)c3ccc(OCC(F)(F)F)cn3)c2)N=C1N [Example 63, 5-(2,2,2-Trifluoro-ethoxy)-pyridine-2-carboxylic acid [3-((S)-2-amino-1,4-dimethyl-6-oxo-1,4,5,6-tetrahydro-pyrimidin-4-yl)-phenyl]-amide]",60
2,"CN1C(=O)C[C@@](C)(c2cccc(NC(=O)c3ncccc3C(F)(F)F)c2)N=C1N [Example 62, 3-Trifluoromethyl-pyridine-2-carboxylic acid [3-((S)-2-amino-1,4-dimethyl-6-oxo-1,4,5,6-tetrahydro-pyrimidin-4-yl)-phenyl]-amide]",150
3,"CN1C(=N)N[C@](C)(c2cc(NC(=O)c3ccc(Cl)cn3)ccc2F)CC1=O [Example 45, 5-Chloro-pyridine-2-carboxylic acid [3-((S)-2-amino-1,4-dimethyl-6-oxo-1,4,5,6-tetrahydro-pyrimidin-4-yl)-4-fluoro-phenyl]amide]",7
4,"Cc1cc(C(=O)Nc2cccc([C@]3(C)CC(=O)N(C)C(N)=N3)c2)n(C2CC2)n1 [Example 79, 2-Cyclopropyl-5-methyl-2H-pyrazole-3-carboxylic acid [3-((S)-2-amino-1,4-dimethyl-6-oxo-1,4,5,6-tetrahydro-pyrimidin-4-yl)-phenyl]-amide]",190
5,"CN1C(=O)C[C@@](C)(c2cccc(NC(=O)c3cc4ccccc4cn3)c2)N=C1N [Example 57, Isoquinoline-3-carboxylic acid [3-((S)-2-amino-1,4-dimethyl-6-oxo-1,4,5,6-tetrahydro-pyrimidin-4-yl)-phenyl]amide]",110
6,"Cc1nc(C(=O)Nc2cccc([C@]3(C)CC(=O)N(C)C(N)=N3)c2)co1 [Example 38, 2-Methyl-oxazole-4-carboxylic acid [3-((S)-2-amino-1,4-dimethyl-6-oxo-1,4,5,6-tetrahydro-pyrimidin-4-yl)-phenyl]-amide]",9
7,"Cc1nc(C(=O)Nc2cccc([C@]3(C)CC(=O)N(C)C(N)=N3)c2)cs1 [Example 67, 2-Methyl-thiazole-4-carboxylic acid [3-((S)-2-amino-1,4-dimethyl-6-oxo-1,4,5,6-tetrahydro-pyrimidin-4-yl)-phenyl]-amide]",160
8,"CN1C(=O)C[C@@](C)(c2cccc(NC(=O)c3ccc(C(F)(F)F)cn3)c2)N=C1N [Example 11, 5-Trifluoromethyl-pyridine-2-carboxylic acid [3-((S)-2-amino-1,4-dimethyl-6-oxo-1,4,5,6-tetrahydro-pyrimidin-4-yl)-phenyl]amide]",28
9,"Cc1ccc(C(=O)Nc2cccc([C@]3(C)CC(=O)N(C)C(N)=N3)c2)nc1 [Example 12, 5-Methyl-pyridine-2-carboxylic acid [3-((S)-2-amino-1,4-dimethyl-6-oxo-1,4,5,6-tetrahydro-pyrimidin-4-yl)-phenyl]amide]",37
10,"CN1C(=O)C[C@@](C)(c2cccc(NC(=O)c3ccc4ccccc4n3)c2)N=C1N [Example 58, Quinoline-2-carboxylic acid [3-((S)-2-amino-1,4-dimethyl-6-oxo-1,4,5,6-tetrahydro-pyrimidin-4-yl)-phenyl]-amide]",410
11,"Cc1cncc(C(=O)Nc2cccc([C@]3(C)CC(=O)N(C)C(N)=N3)c2)n1 [Example 24, 6-Methyl-pyrazine-2-carboxylic acid [3-((S)-2-amino-1,4-dimethyl-6-oxo-1,4,5,6-tetrahydro-pyrimidin-4-yl)-phenyl]amide]",217
12,"CN1C(=O)C[C@@](C)(c2cc(NC(=O)c3ncc(Cl)cn3)ccc2F)N=C1N [Example 46, 5-Chloro-pyrimidine-2-carboxylic acid [3-((S)-2-amino-1,4-dimethyl-6-oxo-1,4,5,6-tetrahydro-pyrimidin-4-yl)-4-fluoro-phenyl]amide]",14
13,"COc1cccnc1C(=O)Nc1cccc([C@]2(C)CC(=O)N(C)C(N)=N2)c1 [Example 65, 3-Methoxy-pyridine-2-carboxylic acid [3-((S)-2-amino-1,4-dimethyl-6-oxo-1,4,5,6-tetrahydro-pyrimidin-4-yl)-phenyl]-amide]",160
14,"CC[C@@]1(c2cccc(NC(=O)c3ccccn3)c2)CC(=O)N(C)C(N)=N1 [Example 40, Pyridine-2-carboxylic acid [3-((S)-2-amino-4-ethyl-1-methyl-6-oxo-1,4,5,6-tetrahydro-pyrimidin-4-yl)-phenyl]-amide]",39

# Next, values leading:
row,IC50 [nM],SMILES
1,36,"CN1C(=O)C(C)(C)[C@@](C)(c2cc(NC(=O)c3ccc(Cl)cn3)ccc2Cl)N=C1N [Example 126, 5-Chloro-pyridine-2-carboxylic acid [3-((S)-2-amino-1,4,5,5-tetramethyl-6-oxo-1,4,5,6-tetrahydro-pyrimidin-4-yl)-4-chloro-phenyl]amide]"
2,840,"Cc1cc(C(=O)Nc2ccc(F)c([C@@]3(C)N=C(N)N(C)C(=O)C3(C)C)c2)no1 [Example 116, 5-Methyl-isoxazole-3-carboxylic acid [3-((S)-2-amino-1,4,5,5-tetramethyl-6-oxo-1,4,5,6-tetrahydro-pyrimidin-4-yl)-4-fluoro-phenyl]amide]"
3,17,"CN1C(=O)C(C)(C)[C@@](C)(c2cc(NC(=O)c3ccn(C(F)F)n3)ccc2F)N=C1N [Example 121, 1-Difluoromethyl-1H-pyrazole-3-carboxylic acid [3-((S)-2-amino-1,4,5,5-tetramethyl-6-oxo-1,4,5,6-tetrahydro-pyrimidin-4-yl)-4-fluoro-phenyl]amide]"
4,230,"CN1C(=O)C(C)(C)[C@@](C)(c2cc(NC(=O)c3ncco3)ccc2F)N=C1N [Example 117, Oxazole-2-carboxylic acid [3-((S)-2-amino-1,4,5,5-tetramethyl-6-oxo-1,4,5,6-tetrahydro-pyrimidin-4-yl)-4-fluoro-phenyl]amide]"
5,370,"CN1C(=O)C(C)(C)[C@@](C)(c2cccc(NC(=O)c3nccc4ccsc34)c2)N=C1N [Example 96, Thieno[2,3-c]pyridine-7-carboxylic acid [3-((R)-2-amino-1,4,5,5-tetramethyl-6-oxo-1,4,5,6-tetrahydro-pyrimidin-4-yl)-phenyl]amide]"
6,170,"CCC[C@@]1(c2cccc(NC(=O)c3ccc(Cl)cn3)c2)CC(=O)N(C)C(N)=N1 [Example 87, 5-Chloro-pyridine-2-carboxylic acid [3-((S)-2-amino-1-methyl-6-oxo-4-propyl-1,4,5,6-tetrahydro-pyrimidin-4-yl)-phenyl]-amide]"
7,21,"Cc1nc(C(=O)Nc2ccc(F)c([C@@]3(C)N=C(N)N(C)C(=O)C3(C)C)c2)co1 [Example 101, 2-Methyl-oxazole-4-carboxylic acid [3-((S)-2-amino-1,4,5,5-tetramethyl-6-oxo-1,4,5,6-tetrahydro-pyrimidin-4-yl)-4-fluoro-phenyl]amide]"
8,40,"CCc1ccc(C(=O)Nc2cccc([C@]3(C)CC(=O)N(C)C(N)=N3)c2)nc1 [Example 83, 5-Ethyl-pyridine-2-carboxylic acid [3-((S)-2-amino-1,4-dimethyl-6-oxo-1,4,5,6-tetrahydro-pyrimidin-4-yl)-phenyl]-amide]"
9,1340,"CN1C(=O)C[C@]2(CCc3ccc(NC(=O)c4ncccc4C(F)(F)F)cc32)N=C1N [Example 130, N-[(1S)-2′-amino-1′-methyl-6′-oxo-2,3,5′,6′-tetrahydro-1′H-spiro[indene-1,4′-pyrimidin]-6-yl]-3-trifluoromethyl-pyridine-2-carboxamide]"
10,150,"COc1cccnc1C(=O)Nc1ccc(F)c([C@@]2(C)N=C(N)N(C)C(=O)C2(C)C)c1 [Example 104, 3-Methoxy-pyridine-2-carboxylic acid [3-((S)-2-amino-1,4,5,5-tetramethyl-6-oxo-1,4,5,6-tetrahydro-pyrimidin-4-yl)-4-fluoro-phenyl]amide]"
11,28,"CN1C(=O)C(C)(C)[C@@](C)(c2cc(NC(=O)c3ncc(Cl)cn3)ccc2F)N=C1N [Example 106, 5-Chloro-pyrimidine-2-carboxylic acid [3-((S)-2-amino-1,4,5,5-tetramethyl-6-oxo-1,4,5,6-tetrahydro-pyrimidin-4-yl)-4-fluoro-phenyl]amide]"
12,28,"CN1C(=O)C(C)(C)[C@@](C)(c2cc(NC(=O)c3ncccc3F)ccc2F)N=C1N [Example 108, 3-Fluoro-pyridine-2-carboxylic acid [3-((S)-2-amino-1,4,5,5-tetramethyl-6-oxo-1,4,5,6-tetrahydro-pyrimidin-4-yl)-4-fluoro-phenyl]amide]"
13,160,"CN1C(=O)C[C@]2(CCc3ccc(NC(=O)c4ccc(Cl)cn4)cc32)N=C1N [Example 127, N-[(1S)-2′-amino-1′-methyl-6′-oxo-2,3,5′,6′-tetrahydro-1′H-spiro[indene-1,4′-pyrimidin]-6-yl]-5-chloropyridine-2-carboxamide]"
14,42,"C[C@@]1(c2cccc(NC(=O)c3ccc(Cl)cn3)c2)CC(=O)N(CC2CC2)C(N)=N1 [Example 124, 5-Chloro-pyridine-2-carboxylic acid [3-((S)-2-amino-1-cyclopropylmethyl-4-methyl-6-oxo-1,4,5,6-tetrahydro-pyrimidin-4-yl)-phenyl]amide]"

# Reference: patent publication US8461160B2, “Dihydropyrimidinones” (Hoffmann-La Roche, Inc., priority 2009, dated 2013)
